Source: ChEMBL document CHEMBL4507268 (2021)

Assays:
Conditions in all cases: Compound concentration 1.0 uM
[1] = target: Serine/threonine-protein kinase WNK3 (Homo sapiens) (UniProt Q9BYP7)
[2] = target: T1, Serine/threonine-protein kinase haspin (Homo sapiens) (UniProt Q8TF76)
T1 sequence (whole entry): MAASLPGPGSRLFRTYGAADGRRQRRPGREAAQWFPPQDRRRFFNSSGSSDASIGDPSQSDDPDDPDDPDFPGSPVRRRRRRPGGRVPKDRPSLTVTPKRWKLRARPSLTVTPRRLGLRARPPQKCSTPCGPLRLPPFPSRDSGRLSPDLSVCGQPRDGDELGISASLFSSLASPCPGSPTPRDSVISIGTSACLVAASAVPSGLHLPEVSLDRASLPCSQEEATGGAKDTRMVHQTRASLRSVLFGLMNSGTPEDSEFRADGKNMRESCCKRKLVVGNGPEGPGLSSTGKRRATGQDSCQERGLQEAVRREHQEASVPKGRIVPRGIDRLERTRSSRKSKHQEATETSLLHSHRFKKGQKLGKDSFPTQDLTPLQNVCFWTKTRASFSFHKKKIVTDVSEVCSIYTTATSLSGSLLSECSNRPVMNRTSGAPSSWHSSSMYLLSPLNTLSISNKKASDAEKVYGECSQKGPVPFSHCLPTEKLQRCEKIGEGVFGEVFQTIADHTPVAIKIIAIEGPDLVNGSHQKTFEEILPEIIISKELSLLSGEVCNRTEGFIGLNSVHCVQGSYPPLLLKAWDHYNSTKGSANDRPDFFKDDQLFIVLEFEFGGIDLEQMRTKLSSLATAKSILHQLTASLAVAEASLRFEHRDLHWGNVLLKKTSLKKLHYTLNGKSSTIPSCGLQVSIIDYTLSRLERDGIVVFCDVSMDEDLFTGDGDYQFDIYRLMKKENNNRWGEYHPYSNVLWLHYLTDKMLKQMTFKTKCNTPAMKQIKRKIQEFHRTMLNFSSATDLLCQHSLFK

[3] = target: T2, Serine/threonine-protein kinase Sgk3 (Homo sapiens) (UniProt Q96BR1)
T2 sequence (whole entry): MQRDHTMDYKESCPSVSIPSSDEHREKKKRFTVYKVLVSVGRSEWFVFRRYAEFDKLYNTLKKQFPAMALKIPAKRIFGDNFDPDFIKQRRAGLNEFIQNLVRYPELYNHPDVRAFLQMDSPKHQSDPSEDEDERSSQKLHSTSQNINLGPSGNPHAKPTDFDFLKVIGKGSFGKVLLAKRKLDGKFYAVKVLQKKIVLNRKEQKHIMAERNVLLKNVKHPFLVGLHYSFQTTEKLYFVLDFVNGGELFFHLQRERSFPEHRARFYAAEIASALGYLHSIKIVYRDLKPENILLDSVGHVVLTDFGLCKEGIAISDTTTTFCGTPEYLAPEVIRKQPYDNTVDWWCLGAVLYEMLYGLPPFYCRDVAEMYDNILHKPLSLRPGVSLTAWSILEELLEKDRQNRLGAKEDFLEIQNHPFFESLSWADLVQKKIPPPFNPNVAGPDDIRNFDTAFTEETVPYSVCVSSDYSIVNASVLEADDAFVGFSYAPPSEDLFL

[4] = target: 5'-AMP-activated protein kinase catalytic subunit alpha-2 (Homo sapiens) (UniProt P54646)
[5] = target: T3, Cyclin-dependent kinase-like 2 (Homo sapiens) (UniProt Q92772)
T3 sequence (whole entry): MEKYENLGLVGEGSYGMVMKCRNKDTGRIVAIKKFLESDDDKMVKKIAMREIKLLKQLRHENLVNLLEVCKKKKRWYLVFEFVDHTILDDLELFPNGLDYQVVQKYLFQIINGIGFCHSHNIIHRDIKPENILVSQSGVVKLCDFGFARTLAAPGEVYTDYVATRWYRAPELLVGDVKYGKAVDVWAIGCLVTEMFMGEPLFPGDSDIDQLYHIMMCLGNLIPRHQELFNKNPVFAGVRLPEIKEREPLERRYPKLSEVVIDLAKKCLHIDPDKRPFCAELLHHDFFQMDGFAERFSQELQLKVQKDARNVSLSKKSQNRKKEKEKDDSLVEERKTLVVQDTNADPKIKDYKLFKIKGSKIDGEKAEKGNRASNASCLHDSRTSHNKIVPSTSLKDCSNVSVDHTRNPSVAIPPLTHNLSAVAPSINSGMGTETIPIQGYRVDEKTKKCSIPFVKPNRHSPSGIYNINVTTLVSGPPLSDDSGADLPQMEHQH

Measured: % residual kinase activity

Sequence of Serine/threonine-protein kinase WNK3 (Homo sapiens) (Q9BYP7 whole entry): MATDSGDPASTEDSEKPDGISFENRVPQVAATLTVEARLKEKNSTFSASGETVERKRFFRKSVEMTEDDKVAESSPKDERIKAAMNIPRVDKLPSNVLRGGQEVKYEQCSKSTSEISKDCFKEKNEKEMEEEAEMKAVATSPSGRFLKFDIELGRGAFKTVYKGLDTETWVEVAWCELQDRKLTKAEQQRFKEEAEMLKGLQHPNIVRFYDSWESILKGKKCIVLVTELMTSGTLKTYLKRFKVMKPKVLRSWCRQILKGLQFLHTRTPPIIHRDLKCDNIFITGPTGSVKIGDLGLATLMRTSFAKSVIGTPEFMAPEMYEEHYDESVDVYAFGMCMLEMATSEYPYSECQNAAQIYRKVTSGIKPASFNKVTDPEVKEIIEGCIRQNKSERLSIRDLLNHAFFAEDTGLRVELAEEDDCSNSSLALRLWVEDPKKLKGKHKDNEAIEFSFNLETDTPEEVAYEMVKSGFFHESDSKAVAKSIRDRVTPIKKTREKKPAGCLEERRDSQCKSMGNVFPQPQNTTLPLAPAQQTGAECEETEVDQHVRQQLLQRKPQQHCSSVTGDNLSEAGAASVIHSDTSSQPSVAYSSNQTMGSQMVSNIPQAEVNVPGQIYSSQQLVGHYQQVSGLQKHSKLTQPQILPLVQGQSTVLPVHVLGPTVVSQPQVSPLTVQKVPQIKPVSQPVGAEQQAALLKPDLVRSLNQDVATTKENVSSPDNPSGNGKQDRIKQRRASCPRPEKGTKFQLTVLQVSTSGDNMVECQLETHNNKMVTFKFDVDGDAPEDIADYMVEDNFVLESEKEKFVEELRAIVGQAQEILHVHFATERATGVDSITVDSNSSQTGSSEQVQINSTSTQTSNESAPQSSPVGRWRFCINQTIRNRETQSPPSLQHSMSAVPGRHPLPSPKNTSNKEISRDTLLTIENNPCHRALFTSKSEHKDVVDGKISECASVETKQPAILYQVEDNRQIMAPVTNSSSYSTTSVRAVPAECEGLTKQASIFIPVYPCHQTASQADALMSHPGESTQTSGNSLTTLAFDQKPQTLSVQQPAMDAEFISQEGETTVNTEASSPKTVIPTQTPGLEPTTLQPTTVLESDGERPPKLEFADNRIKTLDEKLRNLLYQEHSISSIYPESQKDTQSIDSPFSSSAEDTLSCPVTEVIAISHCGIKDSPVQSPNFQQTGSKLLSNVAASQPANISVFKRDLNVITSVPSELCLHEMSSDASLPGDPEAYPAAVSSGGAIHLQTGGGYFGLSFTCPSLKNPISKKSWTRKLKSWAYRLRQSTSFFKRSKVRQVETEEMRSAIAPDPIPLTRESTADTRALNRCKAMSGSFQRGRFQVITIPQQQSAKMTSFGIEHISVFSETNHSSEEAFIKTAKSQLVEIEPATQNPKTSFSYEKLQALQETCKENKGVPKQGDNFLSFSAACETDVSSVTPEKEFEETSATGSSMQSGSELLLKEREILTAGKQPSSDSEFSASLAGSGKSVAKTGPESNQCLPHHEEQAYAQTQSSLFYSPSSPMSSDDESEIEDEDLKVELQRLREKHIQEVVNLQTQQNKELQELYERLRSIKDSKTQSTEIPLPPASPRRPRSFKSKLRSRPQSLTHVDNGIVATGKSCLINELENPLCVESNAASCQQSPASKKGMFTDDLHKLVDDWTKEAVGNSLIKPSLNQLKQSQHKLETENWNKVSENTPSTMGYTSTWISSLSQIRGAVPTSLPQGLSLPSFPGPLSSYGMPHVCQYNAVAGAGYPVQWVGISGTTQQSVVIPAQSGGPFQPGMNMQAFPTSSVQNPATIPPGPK
Sequence of 5'-AMP-activated protein kinase catalytic subunit alpha-2 (Homo sapiens) (P54646 whole entry, looked up): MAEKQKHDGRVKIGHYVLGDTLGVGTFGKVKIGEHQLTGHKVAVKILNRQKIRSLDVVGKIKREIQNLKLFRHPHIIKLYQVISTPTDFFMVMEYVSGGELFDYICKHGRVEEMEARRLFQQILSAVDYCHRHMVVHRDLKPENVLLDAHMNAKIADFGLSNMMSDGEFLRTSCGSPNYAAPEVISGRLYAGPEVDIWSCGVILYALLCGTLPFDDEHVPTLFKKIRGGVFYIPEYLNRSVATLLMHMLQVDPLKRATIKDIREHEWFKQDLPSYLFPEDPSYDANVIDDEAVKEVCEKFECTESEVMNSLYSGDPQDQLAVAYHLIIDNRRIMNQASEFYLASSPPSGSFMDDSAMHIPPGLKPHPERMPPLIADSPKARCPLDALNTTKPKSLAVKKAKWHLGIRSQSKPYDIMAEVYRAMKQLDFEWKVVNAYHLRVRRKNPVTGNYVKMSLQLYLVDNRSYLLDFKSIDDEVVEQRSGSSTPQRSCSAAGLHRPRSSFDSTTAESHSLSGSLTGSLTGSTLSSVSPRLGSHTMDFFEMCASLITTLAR

CN1CCN(c2cnc3c(C4CCN(C(=O)c5ccc(OC(F)(F)F)cc5N)CC4)ncnc3c2)CC1 [BAY-885]
inactive: [1] 107% | [2] 105% | [3] 104% | [4] 109% | [5] 96%
